Experimental data: patent US10570174B2, “Peptides for the treatment of malignant proliferative diseases” (Yissum Research Development Company of the Hebrew …, priority 2015, dated 2020)

Columns and labels:
[1] = test system: 4T1 mammary carcinoma cells; assay: Lung metastasis in mice inoculated with 4T1 cells, YHI1 and derivatives vs control compounds (Example 6); assay type: in vivo, BALB/c mice; details: i.p., doses molar equivalent to 30 ng/kg YHI1, day 5 to day 16, 6 days a week
Description: YHI1 and its derivatives YHI2 and YHI4 were tested in comparison to a scrambled sequence (designated ‘YHI3’), IIIM1 and Arg-Pbf. All peptides were synthesized to over 98% purity.
Female BALB/c mice (9-10 weeks old) were iv injected with 4T1 cells (1×10^4 cells in 0.2 ml culture medium; medium was replaced with fresh medium one day prior to the injection). The tested compounds were ip administered on day 5 after tumor cell inoculation and continued daily thereafter 6 days a week until day 16, on which day the mice were sacrificed (in YHI3 group one animal died 14 days after cell injection before end of study). Each mouse received 10 injections during 11 consecutive days. A control group of mice received the same volume of saline (vehicle) injections. Each group contained 8 mice (n=8). Additional 4 mice remained naïve (without tumor cell injection and without any treatment), designated here as ‘pure control’. At the end of the experiments the mice were sacrificed and their lungs were removed, weighed and quantified for number of foci.

D122 cells [2] = assay: Lung metastasis in mice i.v. injected with D122 cells, treatment started before cell injection; assay type: in vivo, C57BL/6 mice; details: for reduction in Δ lung weight compared to control: day 35
Description: To examine the effect of YHI1 on cancer cell metastasis, lung metastasis was induced in mice, and the lung weight and the number of large metastases in mice treated with YHI1 or with vehicle only were measured.
Female C57BL/6 mice were i.v. injected with D122 cells (5×10^5 cells per mouse suspended in 100 μl PBS). YHI1 was i.p. administered at doses of 0.1 μg/kg body weight and 0.01 μg/kg body weight 8, 6, 4 and 1 day prior to cell injection and thereafter up to 35 days, 3 times a week. Control mice received the vehicle (saline).
Lung weight was determined on day 35 for each animal. Mean weight of lungs of healthy-non injected mice was subtracted from each value of the experimental and control groups, and the results are expressed as A lung weight. n=11, 10 and 9 mice for control, YHI1 0.1 and 0.01 μg/kg groups, respectively. Results are expressed as mean±SE using the Kruskal-Wallis test and Dunnett's multiple comparison post test for statistical evaluation of the differences in lung weight between the experimental groups and control mice. *p<0.05 for both 0.1 μg/kg and 0.01 μg/kg groups.
The number of large visible metastases in the lungs was next quantified. […] The results are expressed as mean±SE. *p<0.05 Mann Whitney test.
The lungs were then fixed, sectioned and stained with H&E for histopathological evaluation.

D122 cells [3] = assay: Lung metastasis in mice i.v. injected with D122 cells, treatment started 7 days after cell injection; assay type: in vivo, C57BL/6 mice; details: i.p. 0.01 μg/kg from 7 days after cell injection
Description: To assess whether time of treatment affects the metastasis process, YHI1 was administered 7 days after tumor cell injection. Female C57BL/6 mice were i.v. injected with D122 cells (5×10^5 cells per mouse suspended in 100 μl PBS). YHI1 was i.p. administered at a dose of 0.01 μg/kg body weight (volume of 0.1 ml) 7 days after cell injection and thereafter up to 35 days, 3 times a week. Control mice received the vehicle (saline). Lung weight, number of tumors, lung histology (H&E) and survival were determined on day 35 after cell inoculation for each animal Lung weight was compared to a healthy lung removed from a naïve animal.

[4] = test system: 4T1 mammary carcinoma cells; assay: Lung metastasis in mice inoculated with 4T1 mammary carcinoma cells (Example 4); assay type: in vivo, BALB/c mice; set-up: Score (histological score of lung, per specimen): scale not given here
Description: Female BALB/c mice (9-10 weeks) were i.v. injected with mammary 4T1 tumor cells (1×10^4 cells in 0.2 ml culture medium). YHI1 was i.p. administered to the mice at doses of 3, 10 and 30 ng/kg body weight (0.1 ml) on day 5 after tumor cell inoculation and thereafter 6 days a week, until day 21, on which day the mice were sacrificed. Control mice received saline (vehicle) injections. Additional 3 mice remained naïve (“pure control”, no cell injection, no treatment). Each dose group contained 10 mice. At the end of the experiments the mice were sacrificed, the lungs of the mice were removed, weighed and quantified for the number of foci.

[5] = test system: D122 cells (3LL Lewis lung carcinoma); assay: Tumor growth in footpads of mice injected with D122 lung tumor cells, oral YHI1; assay type: in vivo, C57BL/6 mice
Description: (§1) YHI1 was synthesized by solid phase synthesis to over 95% purity. To assess the effect of YHI1 on local tumor growth, lung cancer cells were injected into footpads of mice to induce the formation of a topical tumor, and the tumor size was measured in mice treated with several dosages of YHI1 or with vehicle only. Two separate experiments were carried out using this model, one in which YHI1 and vehicle were administered orally and another in which YHI1 and vehicle were administered via intraperitoneal (i.p.) injection.
Female C57BL/6 mice were injected in the footpads with D122 cells (2×10^5 cells per mouse suspended in 50 μl PBS), a highly metastatic 3LL Lewis lung carcinoma. YHI1 (dissolved in saline) was orally administered at the indicated doses 8, 6, 4 and 1 day prior to cell injection and thereafter during 35 days, 3 times a week. Control mice received the vehicle (saline). Tumor size (diameter) was measured by a caliper. Baseline value (before cell injection) was subtracted from each measurement. Groups: control (n=10), and YHI1—0.1 mg/kg (n=9), 1 mg/kg (n=10), 5 mg/kg (n=8).
The results are expressed as mean±SE. p<0.05 for 5 mg/kg group versus control, for the period of 23-35 days (Mann-Whitney test).

B16-F10 cells = assay: Tumorigenicity of B16-F10 melanoma cells injected subcutaneously; assay type: in vivo, C57BL/6 mice; details: 17 days after cell injection
Description: To examine the effect of YHI1 on melanoma tumor cells, female C57BL/6 mice (6-7 weeks) were subcutaneously injected in the lateral thoracic-abdominal area with B16-F10 cells (2×10^5 cells in 0.1 ml culture medium). YHI1 was i.p. administered at doses of 30 and 100 ng/kg body weight (0.1 ml) on day 3 after tumor cell inoculation and thereafter until day 20 of tumor cell inoculation, 6 times a week. Control mice received saline (vehicle) injections. Each dose group contained 10 mice. Tumor size was measured along the experiment and was expressed as multiplication of length and width of the tumor.

[6] = test system: D122 cells (3LL Lewis lung carcinoma); assay: Tumor growth in footpads of mice injected with D122 lung tumor cells, i.p. YHI1; assay type: in vivo, C57BL/6 mice
Description: as §1
Female C57BL/6 mice were injected in the footpads with D122 cells (2×10^5 cells per mouse suspended in 50 μl PBS). YHI1 was i.p. administered at the indicated doses 8, 6, 4 or 1 day prior to cell injection and thereafter up to 34 days, 3 times a week. Control mice received the vehicle (saline). Tumor size (diameter) was measured by a caliper. Baseline value (before cell injection) was subtracted from each measurement. Groups: control (n=10), and YHI1—0.1 μg/kg (n=10), 1 μg/kg (n=10), 10 μg/kg (n=11), 100 μg/kg (n=9).
The results are expressed as mean±SE using the Kruskal-Wallis test and Dunnett's multiple comparison post test for statistical evaluation of the differences between the treated groups and control group at each time point.

With “H-Lys-Gly-His-Tyr-Ala-Glu-Arg(NO2)-Val-Gly-OH (KGHYAEXVG; HELM PEPTIDE1{K.G.H.Y.A.E.[N=C(NCCC[C@H](N[*:1])C(=O)[*:2])N[N+](=O)[O-]].V.G}$$$$V2.0; SMILES CC(C)[C@H](NC(=O)[C@H](CCCNC(=N)N[N+](=O)[O-])NC(=O)[C@H](CCC(=O)O)NC(=O)[C@H](C)NC(=O)[C@H](Cc1ccc(O)cc1)NC(=O)[C@H](Cc1c[nH]cn1)NC(=O)CNC(=O)[C@@H](N)CCCCN)C(=O)NCC(=O)O) [YHI4, KGHYAER(NO2)VG, derivative of YHI1]” the “lung weight compared to saline control” value [1] was “significant reduction” and the “number of tumors per lung compared to saline control” value [1] was “reduction was not statistically significant”.
For “H-Lys-Gly-His-Tyr-Ala-Glu-Arg(Pbf)-Val-Gly-OH (KGHYAEXVG; HELM PEPTIDE1{K.G.H.Y.A.E.[Cc1c(C)c(S(=O)(=O)NC(=N)NCCC[C@H](N[*:1])C(=O)[*:2])c(C)c2c1OC(C)(C)C2].V.G}$$$$V2.0; SMILES Cc1c(C)c(S(=O)(=O)NC(=N)NCCC[C@H](NC(=O)[C@H](CCC(=O)O)NC(=O)[C@H](C)NC(=O)[C@H](Cc2ccc(O)cc2)NC(=O)[C@H](Cc2c[nH]cn2)NC(=O)CNC(=O)[C@@H](N)CCCCN)C(=O)N[C@H](C(=O)NCC(=O)O)C(C)C)c(C)c2c1OC(C)(C)C2) [YHI1]”, the “number of large visible metastases in the lungs” value (D122 cells [2]; i.p. 0.01 μg/kg) was “totally eliminated visible metastases”, the “reduction in Δ lung weight compared to control” value (D122 cells [2]; i.p. 0.01 μg/kg) was 87% and the “lung histopathology (H&E)” value (D122 cells [2]; i.p. 0.01 μg/kg, representative section) was “tumor free”. The “reduction of number of large metastases compared to control” value (D122 cells [2]; i.p. 0.1 μg/kg) was 58%, the “reduction in Δ lung weight compared to control” value (D122 cells [2]; i.p. 0.1 μg/kg) was 78% and the “lung weight compared to saline control” value [1] was “significant reduction”. The “number of tumors per lung compared to saline control” value [1] was “significant reduction”, the “histological lung sections (H&E)” value (D122 cells [3]) was “only a single focus of viable tumor” and the “histological score of lung metastasis” value (D122 cells [3]) was “significantly reduced”. For the same substance, the “lung weight lower than control” value (D122 cells [3]; day 35) was 63%, the “number of large and medium sized metastases in the lungs” value (D122 cells [3]; day 35) was “significantly reduced” and the survival (D122 cells [3]; control 80% survival) was “full animal survival”. The “Description (blindly evaluated) of lung histology, per specimen” value ([4]; 30 ng/kg, individual specimens i-X) was “No metastases observed”, the “Score (histological score of lung, per specimen)” value ([4]; 30 ng/kg, individual specimens i-X, blindly evaluated) was 0 and the “effect on foci number” value ([4]; i.p. 3 ng/kg) was “no effect”. For the same substance, the “effect on lung weight” value ([4]; i.p. 3 ng/kg, day 5 to day 21, 6 days a week) was “no effect”, the “reduction of number of lung foci vs control” value ([4]; i.p. 10 ng/kg) was 94% and the “reduction of lung weight vs control” value ([4]; i.p. 10 ng/kg, day 5 to day 21, 6 days a week) was 65%. For the same substance, the “reduction of number of lung foci vs control” value ([4]; i.p. 30 ng/kg) was 100%, the “histological score of lung metastasis (group)” value ([4]; i.p. 30 ng/kg vs control) was “significantly reduced” and the “reduction of lung weight vs control” value ([4]; i.p. 30 ng/kg, day 5 to day 21, 6 days a week) was 78%. For the same substance, the histological lung section ([4]; i.p. 30 ng/kg, representative section) was “normal lung tissue with no evidence of metastases”, the “reduction of tumor size, comparison between doses” value ([5]; oral, 5 mg/kg vs 1 mg/kg and 0.1 mg/kg) was “more effective in reducing tumor size than the lower doses” and the “rate of tumor growth (tumor size, diameter)” value ([5]; oral, 0.1, 1, 5 mg/kg, 8, 6, 4, 1 day prior to cell injection and 3 times a week during 35 days) was “reduced the rate of tumor growth”. The “effect on local tumor growth” value (B16-F10 cells; i.p. 30 ng/kg compared with 100 ng/kg) was “slightly weaker effect”, the “reduction of local tumor growth (tumor size, length x width)” value (B16-F10 cells; i.p. 100 ng/kg) was 55% and the “reduction of tumor size, comparison between doses” value ([6]; 0.1 μg/kg vs higher doses up to 100 μg/kg) was “more effective in reducing tumor size than higher doses”. The “rate of tumor growth (tumor size, diameter)” value ([6]; 0.1-100 μg/kg, 8, 6, 4, 1 day prior to cell injection and 3 times a week up to 34 days) was “reduced the rate of tumor growth”.
“H-Lys-Gly-His-Tyr-Arg(Pbf)-Ala-Glu-Val-Gly-OH (KGHYXAEVG; HELM PEPTIDE1{K.G.H.Y.[Cc1c(C)c(S(=O)(=O)NC(=N)NCCC[C@H](N[*:1])C(=O)[*:2])c(C)c2c1OC(C)(C)C2].A.E.V.G}$$$$V2.0; SMILES Cc1c(C)c(S(=O)(=O)NC(=N)NCCC[C@H](NC(=O)[C@H](Cc2ccc(O)cc2)NC(=O)[C@H](Cc2c[nH]cn2)NC(=O)CNC(=O)[C@@H](N)CCCCN)C(=O)N[C@@H](C)C(=O)N[C@@H](CCC(=O)O)C(=O)N[C@H](C(=O)NCC(=O)O)C(C)C)c(C)c2c1OC(C)(C)C2) [YHI2, KGHYR(Pbf)AEVG, derivative of YHI1]” was tested, and the “lung weight compared to saline control” value [1] was “significant reduction” and the “number of tumors per lung compared to saline control” value [1] was “significant reduction”.
